Measurements as given in US5665754A, “Substituted pyrrolidines” (Glaxo Wellcome Inc., priority 1993, dated 1997).

Test system: TNFα secretion from murine elicited peritoneal macrophages
Experiment: Assay for inhibition of LPS-induced TNFα production
Assay type: cell-based, mouse
Conditions: preliminary experiments
Description: In order to assess the ability of a compound to reduce TNFα secretion in elicited mouse peritoneal macrophages, the following protocol was employed. […] (See Scales, W. E., S. W. Chensuc, I. Otterness and S. L. Kunkel, 1989, Regulation of monokine gene expression: Prostaglandin E2 suppresses tumor necrosis factor but not interleukin-1a or b-mRNA and cell-associated bioactivity, J. Leukocytc Biology 45:416-421.). (See also Renz, H., J-H. Gong, A. Schmidt, M. Nain and Diethard Gemsa, 1988, Release of tumor necrosis factor-a from macrophages. Enhancement and suppression are dose-dependently regulated by prostaglandin E2 and cyclic nucleotides, J. Immunol. 1 41:2388-2393). […] (See Noel, L. S., M. Verghese, K. M. Connelly, L. J. Sekut and S. A. Stimpson, 1992, Type IV-specific phosphodiesterase (PDE) inhibitors suppress murine TNFα expression in vitro and in vivo-(abstract)--6th International Conference, Inflammation Research Association). TNFα secretion from murine elicited peritoneal macrophages was used as a readout for a compound's ability to raise cAMP, and/or inhibit phosphodiesterase within a cell.
Mice (female C3H mice, 15-20 gm body weight) were injected intraperitoneally with 2 mL of 5 mM sodium periodate solution. […] TNFα protein in the supernatant fluids was measured using a commercially available enzyme-linked immunosorbant assay (ELISA) (Genzyme).

For `COc1ccc(C2CNC(=O)C2)cc1OC1CCCC1` (stereo not shown) [rolipram], the “LPS induced TNFα secretion from murine macrophages” value was “inhibited”.
